Experiments:
[1] = tested on: B-lymphocyte cancer cells (U266); test: In vitro cytotoxicity, CellTiter-Glo 96 h, U266; details: Homo sapiens, U-266, read-out: Cytotoxic potency as free drug, IC50, U266
Experimental: (§1) In vitro potency was assessed on multiple cancer cell lines. All cell lines were authenticated by STR profiling at IDEXX Bioresearch and cultured for no more than 2 months after resuscitation. Cells cultured in log-phase growth were seeded for 24 hours in 96-well plates containing 150 μl RPMI 1640 supplemented with 20% FBS. Serial dilutions of antibody-drug conjugates in cell culture media were prepared at 4× working concentrations, and 50 μl of each dilution was added to the 96-well plates. Following addition of test articles, cells were incubated with test articles for 4 days at 37° C. After 96 hours, growth inhibition was assessed by CellTiter-Glo® (Promega, Madison, Wis.) and luminescence was measured on a plate reader.
(§2) Cell viability was determined by CellTiter-Glo staining after 96 h exposure to ADC. […] Ag1 is an antibody targeting a ubiquitous and readily internalizable antigen on cancer cells, Ag2 is cAC10 antibody targeting CD30(+) cancer cells, Ag3 is h1F6 antibody targeting CD70(+) cancer cells, Ag4 is hMEM102 antibody targeting CD48(+) cancer cells, Ag5 is h20F3 antibody targeting NTB-A expressing cancer cells, and h00 is a non-binding control antibody.

[2] = tested on: renal carcinoma cells (786-O); test: In vitro cytotoxicity, CellTiter-Glo 96 h, 786-O; details: Homo sapiens, 786-0, read-out: Cytotoxic potency (IC50 class), 786-O
Experimental: as §1
(§3) Cell viability was determined by CellTiter-Glo staining after 96 h exposure to ADC.

[3] = tested on: Hodgkin's lymphoma cells (L540cy); test: In vitro cytotoxicity, CellTiter-Glo 96 h, L540cy; details: read-out: Cytotoxic potency (IC50 class), L540cy
Experimental: as §1, §3

[4] = tested on: melanoma cells (SK-MEL-5); test: In vitro cytotoxicity, CellTiter-Glo 96 h, SK-MEL-5; details: Homo sapiens, SK-MEL-5, read-out: Cytotoxic potency as free drug, IC50, SK-MEL-5
Experimental: as §1, §2

[5] = tested on: multiple myeloma cells (MM.1R); test: In vitro cytotoxicity, CellTiter-Glo 96 h, MM.1R; details: read-out: Cytotoxic potency (IC50 class), MM.1R
Experimental: as §1, §2

[6] = tested on: multiple drug resistant acute promyelocytic leukemia cells (HL-60/RV); test: In vitro cytotoxicity, CellTiter-Glo 96 h, HL60/RV; details: Homo sapiens, HL-60, read-out: Cytotoxic potency (IC50 class), HL60/RV
Experimental: as §1, §3

[7] = tested on: pancreatic cancer cells (BxPC3); test: In vitro cytotoxicity, CellTiter-Glo 96 h, BxPC3; details: Homo sapiens, BXPC-3, read-out: Cytotoxic potency (IC50 class), BxPC3
Experimental: as §1, §3

[8] = tested on: acute myeloid leukemia cells (MOLM13); test: In vitro cytotoxicity, CellTiter-Glo 96 h, MOLM13; details: Homo sapiens, MOLM-13, read-out: Cytotoxic potency as free drug, IC50, MOLM13
Experimental: as §1, §3

[9] = tested on: acute promyelocytic leukemia cells (HL-60); test: In vitro cytotoxicity, CellTiter-Glo 96 h, HL-60; details: Homo sapiens, HL-60, read-out: Cytotoxic potency (IC50 class), HL-60
Experimental: as §1, §2

[10] = tested on: B-lymphocyte cancer cells (SU-DHL-4); test: In vitro cytotoxicity, CellTiter-Glo 96 h, SU-DHL-4; details: Homo sapiens, SU-DHL-4, read-out: Cytotoxic potency as free drug, IC50, SU-DHL-4
Experimental: as §1, §2

[11] = tested on: Burkitt's lymphoma cells (Ramos); test: In vitro cytotoxicity, CellTiter-Glo 96 h, Ramos; details: Homo sapiens, read-out: Cytotoxic potency as free drug, IC50, Ramos
Experimental: as §1, §3

Compound | IC50 [1] [nM] | IC50 [2] [nM] | IC50 [3] [nM] | IC50 [4] [nM] | IC50 [5] [nM] | IC50 [6] [nM] | IC50 [7] [nM] | IC50 [8] [nM] | IC50 [9] [nM] | IC50 [10] [nM] | IC50 [11] [nM]
CCNCc1c2c(nc3cc4c(cc13)OCO4)-c1cc3c(c(=O)n1C2)COC(=O)[C@]3(O)CC [Compound 5a] | 1 to 10 | 1 to 10 | 1 to 10 | 1 to 10 | 1 to 10 | 1 to 10 | 1 to 10 | 1 to 10 | 10 to 100 | 1 to 10 | 1 to 10
CC[C@@]1(O)C(=O)OCc2c1cc1n(c2=O)Cc2c-1nc1cc3c(cc1c2CN(C)C1CCCC[C@H]1NC)OCO3 (stereo partly drawn) [Compound 5aa] | 10 to 100 | 10 to 100 | 10 to 100 | 10 to 100 | 10 to 100 | 100 to 1000 | 100 to 1000 | 10 to 100 | 100 to 1000 | 10 to 100 | 1 to 10
CC[C@@]1(O)C(=O)OCc2c1cc1n(c2=O)Cc2c-1nc1cc3c(cc1c2CNc1ccccc1)OCO3 [Compound 5b] | 1 to 10 | 1 to 10 | 0.1 to 1 | 1 to 10 | 1 to 10 | 1 to 10 | 1 to 10 | 10 to 100 | 10 to 100 | 0.1 to 1 | 0.1 to 1
CC[C@@]1(O)C(=O)OCc2c1cc1n(c2=O)Cc2c-1nc1cc3c(cc1c2CNC(C)C)OCO3 [Compound 5c] | 1 to 10 | 1 to 10 | 1 to 10 | 1 to 10 | 1 to 10 | 1 to 10 | 1 to 10 | 1 to 10 | 1 to 10 | 1 to 10 | 0.1 to 1
CC[C@@]1(O)C(=O)OCc2c1cc1n(c2=O)Cc2c-1nc1cc3c(cc1c2CNC1CCCCC1)OCO3 [Compound 5d] | 1 to 10 | 1 to 10 | 1 to 10 | 1 to 10 | 1 to 10 | 1 to 10 | 1 to 10 | 1 to 10 | 10 to 100 | 1 to 10 | 1 to 10
CC[C@@]1(O)C(=O)OCc2c1cc1n(c2=O)Cc2c-1nc1cc3c(cc1c2CNCc1ccc(N)cc1)OCO3 [Compound 5e] | 10 to 100 | 10 to 100 | 1 to 10 | 10 to 100 | 1 to 10 | 100 to 1000 | 10 to 100 | 1 to 10 | 10 to 100 | 1 to 10 | 1 to 10
CC[C@@]1(O)C(=O)OCc2c1cc1n(c2=O)Cc2c-1nc1cc3c(cc1c2CNCCCCO)OCO3 [Compound 5f] | 1 to 10 | 1 to 10 | 1 to 10 | 1 to 10 | 1 to 10 | 100 to 1000 | 10 to 100 | 1 to 10 | 10 to 100 | 1 to 10 | 1 to 10
CC[C@@]1(O)C(=O)OCc2c1cc1n(c2=O)Cc2c-1nc1cc3c(cc1c2CN1CCOCC1)OCO3 [Compound 5g] | 1 to 10 | 1 to 10 | 1 to 10 | 1 to 10 | 1 to 10 | 1 to 10 | 1 to 10 | 1 to 10 | 1 to 10 | 1 to 10 | 0.1 to 1
CC[C@@]1(O)C(=O)OCc2c1cc1n(c2=O)Cc2c-1nc1cc3c(cc1c2CN1CCN(C)CC1)OCO3 [Compound 5h] | 10 to 100 | 1 to 10 | 1 to 10 | 10 to 100 | 1 to 10 | 10 to 100 | 10 to 100 | 1 to 10 | 10 to 100 | 1 to 10 | 1 to 10
CC[C@@]1(O)C(=O)OCc2c1cc1n(c2=O)Cc2c-1nc1cc3c(cc1c2CNCC(C)C)OCO3 [Compound 5i] | 1 to 10 | 1 to 10 | 1 to 10 | 1 to 10 | 1 to 10 | 1 to 10 | 1 to 10 | 1 to 10 | 10 to 100 | 1 to 10 | 1 to 10
CC[C@@]1(O)C(=O)OCc2c1cc1n(c2=O)Cc2c-1nc1cc3c(cc1c2CNCc1ccccc1)OCO3 [Compound 5j] | 1 to 10 | 1 to 10 | 1 to 10 | 1 to 10 | 1 to 10 | 1 to 10 | 1 to 10 | 1 to 10 | 10 to 100 | 1 to 10 | 1 to 10
CCCCNCc1c2c(nc3cc4c(cc13)OCO4)-c1cc3c(c(=O)n1C2)COC(=O)[C@]3(O)CC [Compound 5k] | 1 to 10 | 1 to 10 | 1 to 10 | 1 to 10 | 1 to 10 | 1 to 10 | 1 to 10 | 1 to 10 | 10 to 100 | 1 to 10 | 1 to 10
CC[C@@]1(O)C(=O)OCc2c1cc1n(c2=O)Cc2c-1nc1cc3c(cc1c2CNCc1ccc(OC)cc1)OCO3 [Compound 5l] | 10 to 100 | 10 to 100 | 10 to 100 | 10 to 100 | 1 to 10 | 10 to 100 | 10 to 100 | 1 to 10 | 10 to 100 | 1 to 10 | 1 to 10
CC[C@@]1(O)C(=O)OCc2c1cc1n(c2=O)Cc2c-1nc1cc3c(cc1c2CNCCC(c1ccccc1)c1ccccc1)OCO3 [Compound 5o] | 10 to 100 | 10 to 100 | 1 to 10 | 10 to 100 | 10 to 100 | 10 to 100 | 10 to 100 | 10 to 100 | 100 to 1000 | 10 to 100 | 1 to 10
CC[C@@]1(O)C(=O)OCc2c1cc1n(c2=O)Cc2c-1nc1cc3c(cc1c2CN(CCO)CCO)OCO3 [Compound 5p] | 10 to 100 | 10 to 100 | 10 to 100 | 10 to 100 | 1 to 10 | 100 to 1000 | 10 to 100 | 10 to 100 | 100 to 1000 | 10 to 100 | 1 to 10
CC[C@@]1(O)C(=O)OCc2c1cc1n(c2=O)Cc2c-1nc1cc3c(cc1c2CN(CCN)CCO)OCO3 [Compound 5q] | 10 to 100 | 10 to 100 | 10 to 100 | 100 to 1000 | 10 to 100 | 100 to 1000 | 100 to 1000 | 10 to 100 | 100 to 1000 | 10 to 100 | 10 to 100
CC[C@@]1(O)C(=O)OCc2c1cc1n(c2=O)Cc2c-1nc1cc3c(cc1c2CNc1ccc(F)cc1)OCO3 [Compound 5r] | 1 to 10 | 1 to 10 | 1 to 10 | 1 to 10 | 1 to 10 | 10 to 100 | 1 to 10 | 10 to 100 | 10 to 100 | 1 to 10 | 1 to 10
CC[C@@]1(O)C(=O)OCc2c1cc1n(c2=O)Cc2c-1nc1cc3c(cc1c2CNC12CC4CC(CC(C4)C1)C2)OCO3 [Compound 5s] | 10 to 100 | 10 to 100 | 10 to 100 | 10 to 100 | 10 to 100 | 10 to 100 | 10 to 100 | 10 to 100 | 100 to 1000 | 10 to 100 | 10 to 100
CC[C@@]1(O)C(=O)OCc2c1cc1n(c2=O)Cc2c-1nc1cc3c(cc1c2CN(C)CCN(C)C)OCO3 [Compound 5t] | 10 to 100 | 1 to 10 | 1 to 10 | 10 to 100 | 1 to 10 | 10 to 100 | 10 to 100 | 10 to 100 | 100 to 1000 | 1 to 10 | 1 to 10
CC[C@@]1(O)C(=O)OCc2c1cc1n(c2=O)Cc2c-1nc1cc3c(cc1c2CNCC1CCNCC1)OCO3 [Compound 5u] | 10 to 100 | 10 to 100 | 10 to 100 | 10 to 100 | 10 to 100 | 100 to 1000 | 10 to 100 | 10 to 100 | 100 to 1000 | 10 to 100 | 1 to 10
CC[C@@]1(O)C(=O)OCc2c1cc1n(c2=O)Cc2c-1nc1cc3c(cc1c2CNCCN(C)CCO)OCO3 [Compound 5w] | 10 to 100 | 10 to 100 | 10 to 100 | 10 to 100 | 10 to 100 | 10 to 100 | 10 to 100 | 10 to 100 | 100 to 1000 | 10 to 100 | 1 to 10

— patent US20190343828A1, “CAMPTOTHECIN PEPTIDE CONJUGATES” (SEATTLE GENETICS, INC., priority 2018, published 2019)
